Counter-ions that a name gives are not always drawn.
Each compound was assayed against recombinant human SYK360-635 (Homo sapiens (Human), UniProt P43405) (assay: SYK kinase assay (33P ATP filtration, IC50 of SYK inhibition)). Details: truncated SYK aa 360-635 0.5 nM, ATP 20 μM, peptide 5 μM, 30° C. 15 min; read-out: ENZYME_FILTRATION_IC50.
Type: biochemical
Description: Determination of IC50 of Spleen Tyrosine Kinase (SYK) Inhibition:
SYK kinase assay is a standard kinase assay adapted to a 96 well plate format. This assay is performed in 96-well format for IC50 determination with […] which represented 10 half log dilutions and a 40 μL reaction volume. The assay measures the incorporation of radiolabeled ^33P γATP into an N-terminally biotinylated peptide substrate, derived from naturally occurring phosphoacceptor consensus sequence (Biotin-11aa DY*E). Phosphorylated products were detected upon termination of reactions with EDTA and the addition of Streptavidin coated beads.
Assay plates: 96-well MultiScreen 0.65 um filter plates (Millipore Cat. No.: MADVNOB10)
final concentration: 50 mM HEPES pH7.5
BSA: Bovine Serum Albumin Fraction V, fatty acid free (Roche Diagnostics GmbH, Cat. No. 9100221) diluted to a final concentration of 0.1%
Assay Dilution Buffer (ADB): 50 mM HEPES, 0.1 mM EGTA, 0.1 mM Na Vanadate, 0.1 mM β-glycerophosphate, 10 mM MgCl2, 1 mM DTT, 0.1% BSA, pH 7.5
Bead wash buffer: 10 g/L PBS (Phosphate buffered saline) with 2M NaCl+1% phosphoric acid.
DMSO and the mixture was incubated for 10 min at RT.
The kinase reaction was initiated by the addition of 10 μL 4× substrate cocktail containing the DYE peptide substrate [0 or 5 μM], ATP [20 μM] and ^33PγATP [2 μCi/r×n]. After incubation at 30° C. for 15 min, the reaction was terminated by the transfer of 25 μL of the reaction sample to a 96 well 0.65 μm Millipore MADVNOB membrane/plate containing 200 μL 5 mM EDTA and 20% Streptavidine coated beads in PBS.
After the last wash membrane/plates were transferred to an adaptor plate, heat dried for 15 min at 60° C., and 50 μL scintillation cocktail was added to each well and 4 h later the amount of radioactivity was counted in a top counter.

Going from `CC1CCCN1c1cccc(Nc2cc(-c3ccccc3C(F)(F)F)nn3ccnc23)n1` (stereo not drawn) [Example I-48, [6-(2-Methyl-pyrrolidin-1-yl)-pyridin-2-yl]-[6-(2-trifluoromethyl-phenyl)-imidazo[1,2-b]pyridazin-8-yl]-amine hydrochloride] to `C[C@H]1CCCN1c1cccc(Nc2cc(-c3cccc(Cl)c3)nn3ccnc23)n1` [Example I-71, [6-(3-Chloro-phenyl)-imidazo[1,2-b]pyridazin-8-yl]-[6-((S)-2-methyl-pyrrolidin-1-yl)-pyridin-2-yl]-amine hydrochloride], the IC50 falls from 410 nM to 246 nM (1.7-fold). The second is the more potent here.

Going from `C[C@H]1CCCN1c1cccc(Nc2cc(-c3ccc4ncsc4c3)nn3ccnc23)n1` [Example I-52, (6-Benzothiazol-6-yl-imidazo[1,2-b]pyridazin-8-yl)-[6-((S)-2-methyl-pyrrolidin-1-yl)-pyridin-2-yl]-amine] to `CC1CCCN1c1cccc(Nc2cc(-c3cccc(O)c3)nn3ccnc23)n1` (stereo not drawn) [Example I-86, 3-{8-[6-(2-Methyl-pyrrolidin-1-yl)-pyridin-2-ylamino]-imidazo[1,2-b]pyridazin-6-yl}-phenol], the IC50 rises from 36.1 nM to 102 nM (2.8-fold). The first is the more potent here.

Going from `COc1ccc(Nc2cc(-c3cccc(C(=O)Nc4ccc5c(c4)CNC5=O)c3)nn3ccnc23)nc1OC` [Example I-56, 3-[8-(5,6-Dimethoxy-pyridin-2-ylamino)-imidazo[1,2-b]pyridazin-6-yl]-N-(1-oxo-2,3-dihydro-1H-isoindol-5-yl)-benzamide] to `COc1cc(NC(=O)c2cccc(-c3cc(Nc4ccc(OC)c(OC)n4)c4nccn4n3)c2)ccc1C(=O)O` [Example I-57, 4-{3-[8-(5,6-Dimethoxy-pyridin-2-ylamino)-imidazo[1,2-b]pyridazin-6-yl]-benzoylamino}-2-methoxy-benzoic acid], the IC50 falls from 593 nM to 1.55 nM (380-fold). The second is the more potent here.

First: CC1(C)CCN(c2cccc(Nc3cc(-c4cccc(C(=O)O)c4)nn4ccnc34)n2)C1 [Example I-59, 3-{8-[6-(3,3-Dimethyl-pyrrolidin-1-yl)-pyridin-2-ylamino]-imidazo[1,2-b]pyridazin-6-yl}-benzoic acid]
Second: CC1(C)CCN(c2cccc(Nc3cc(-c4cccc(C(=O)O)c4)nn4ccnc34)n2)CC1 [Example I-61, 3-[8-(4,4-Dimethyl-3,4,5,6-tetrahydro-2H-[1,2′]bipyridinyl-6′-ylamino)-imidazo[1,2-b]pyridazin-6-yl]-benzoic acid]
The IC50 of the first is 2.3-fold lower: 599 nM for the first, 1380 nM for the second. The first is the more potent here.

Compared with `CC1CCC(C)N1c1cccc(Nc2cc(-c3cccc(C(=O)O)c3)nn3ccnc23)n1` (stereo not drawn) [Example I-60, 3-{8-[6-(2,5-Dimethyl-pyrrolidin-1-yl)-pyridin-2-ylamino]-imidazo[1,2-b]pyridazin-6-yl}-benzoic acid], `CC(C)(C)C1CCN(c2cccc(Nc3cc(-c4cccc(C(=O)O)c4)nn4ccnc34)n2)C1` (stereo not drawn) [Example I-66, 3-{8-[6-(3-tert-Butyl-pyrrolidin-1-yl)-pyridin-2-ylamino]-imidazo[1,2-b]pyridazin-6-yl}-benzoic acid] is 3-fold higher in IC50: 231 nM for the first, 696 nM for the second.

Compared with `COc1ccc(-c2cc(Nc3cccc(N4CCCC4C)n3)c3nccn3n2)cc1OC` (stereo not drawn) [Example I-62, [6-(3,4-Dimethoxy-phenyl)-imidazo[1,2-b]pyridazin-8-yl]-[6-(2-methyl-pyrrolidin-1-yl)-pyridin-2-yl]-amine], `COc1cncc(-c2cc(Nc3cccc(N4CCCC4C)n3)c3nccn3n2)c1` (stereo not drawn) [Example I-82, [6-(5-Methoxy-pyridin-3-yl)-imidazo[1,2-b]pyridazin-8-yl]-[6-(2-methyl-pyrrolidin-1-yl)-pyridin-2-yl]-amine] is 5.1-fold lower in IC50: 306 nM for the first, 59.9 nM for the second.

`CC(=O)N1CCc2ccc(-c3cc(Nc4cccc(N5CCCC5C)n4)c4nccn4n3)cc2C1` (stereo not drawn) [Example I-64, 1-(7-{8-[6-(2-Methyl-pyrrolidin-1-yl)-pyridin-2-ylamino]-imidazo[1,2-b]pyridazin-6-yl}-3,4-dihydro-1H-isoquinolin-2-yl)-ethanone] and `CC1CCCN1c1cccc(Nc2cc(-c3ccc(O)cc3)nn3ccnc23)n1` (stereo not drawn) [Example I-77, 4-{8-[6-(2-Methyl-pyrrolidin-1-yl)-pyridin-2-ylamino]-imidazo[1,2-b]pyridazin-6-yl}-phenol] are within 1.5-fold of each other in IC50: 56.6 nM for the first, 63.9 nM for the second.

Compared with `COC(=O)c1cccc(-c2cc(Nc3cccc(N4CCC(C(C)(C)C)C4)n3)c3nccn3n2)c1` (stereo not drawn) [Example I-65, 3-{8-[6-(3-tert-Butyl-pyrrolidin-1-yl)-pyridin-2-ylamino]-imidazo[1,2-b]pyridazin-6-yl}-benzoic acid methyl ester], `CC(C)(C)C1CCN(c2cccc(Nc3cc(-c4cccc(C(N)=O)c4)nn4ccnc34)n2)C1` (stereo not drawn) [Example I-67, 3-{8-[6-(3-tert-Butyl-pyrrolidin-1-yl)-pyridin-2-ylamino]-imidazo[1,2-b]pyridazin-6-yl}-benzamide] is 4.5-fold lower in IC50: 1260 nM for the first, 280 nM for the second. The second is the more potent here.

First: CC1CCCN1c1cccc(Nc2cc(-c3cccc(CN4CCCC4)c3)nn3ccnc23)n1 (stereo not drawn) [Example I-70, [6-(2-Methyl-pyrrolidin-1-yl)-pyridin-2-yl]-[6-(3-pyrrolidin-1-ylmethyl-phenyl)-imidazo[1,2-b]pyridazin-8-yl]-amine]
Second: CC1CCCN1c1cccc(Nc2cc(-c3cccc(OCCN4CCCCC4)c3)nn3ccnc23)n1 (stereo not drawn) [Example I-87, [6-(2-Methyl-pyrrolidin-1-yl)-pyridin-2-yl]-{6-[3-(2-piperidin-1-yl-ethoxy)-phenyl]-imidazo[1,2-b]pyridazin-8-yl}-amine]
The IC50 of the first is 3.5-fold lower: 60.8 nM for the first, 210 nM for the second.

Compared with `COc1ccc(Nc2cc(N3CCCC(NC(=O)c4ccc(C(=O)O)cc4)C3)nn3ccnc23)nc1OC` (stereo not drawn) [Example I-72, N-{1-[8-(5,6-Dimethoxy-pyridin-2-ylamino)-imidazo[1,2-b]pyridazin-6-yl]-piperidin-3-yl}-terephthalamic acid], `COc1ccc(Nc2cc(N3CCC(NC(=O)c4ccc(C(=O)O)cc4)C3)nn3ccnc23)nc1OC` (stereo not drawn) [Example I-76, N-{1-[8-(5,6-Dimethoxy-pyridin-2-ylamino)-imidazo[1,2-b]pyridazin-6-yl]-pyrrolidin-3-yl}-terephthalamic acid] is 19-fold higher in IC50: 2.2 nM for the first, 42.1 nM for the second. The first is the more potent here.

Going from `COc1ccc(Nc2cc(N3CCCC(C(=O)Nc4ccc(C(=O)O)cc4)C3)nn3ccnc23)nc1OC` (stereo not drawn) [Example I-74, 4-({1-[8-(5,6-Dimethoxy-pyridin-2-ylamino)-imidazo[1,2-b]pyridazin-6-yl]-piperidine-3-carbonyl}-amino)-benzoic acid] to `COc1ccc(Nc2cc(N3CCC(C(=O)Nc4ccc(C(=O)O)cc4)C3)nn3ccnc23)nc1OC` (stereo not drawn) [Example I-75, 4-({1-[8-(5,6-Dimethoxy-pyridin-2-ylamino)-imidazo[1,2-b]pyridazin-6-yl]-pyrrolidine-3-carbonyl}-amino)-benzoic acid], the IC50 rises from 14.9 nM to 461 nM (31-fold).

Going from `CC1CCCN1c1cccc(Nc2cc(-c3cccnc3)nn3ccnc23)n1` (stereo not drawn) [Example I-78, [6-(2-Methyl-pyrrolidin-1-yl)-pyridin-2-yl]-(6-pyridin-3-yl-imidazo[1,2-b]pyridazin-8-yl)-amine] to `CC1CCCN1c1cccc(Nc2cc(-c3ccncc3)nn3ccnc23)n1` (stereo not drawn) [Example I-81, [6-(2-Methyl-pyrrolidin-1-yl)-pyridin-2-yl]-(6-pyridin-4-yl-imidazo[1,2-b]pyridazin-8-yl)-amine], the IC50 rises from 65.2 nM to 188 nM (2.9-fold).

`CC1CCCN1c1cccc(Nc2cc(-c3ccc(F)cc3)nn3ccnc23)n1` (stereo not drawn) [Example I-79, [6-(4-Fluoro-phenyl)-imidazo[1,2-b]pyridazin-8-yl]-[6-(2-methyl-pyrrolidin-1-yl)-pyridin-2-yl]-amine] and `CC1CCCN1c1cccc(Nc2cc(-c3ccc(C(C)(C)C)cc3)nn3ccnc23)n1` (stereo not drawn) [Example I-85, [6-(4-tert-Butyl-phenyl)-imidazo[1,2-b]pyridazin-8-yl]-[6-(2-methyl-pyrrolidin-1-yl)-pyridin-2-yl]-amine] are within 1.5-fold of each other in IC50: 488 nM for the first, 610 nM for the second.

Compared with `CC1CCCN1c1cccc(Nc2cc(-c3cccc(C#N)c3)nn3ccnc23)n1` (stereo not drawn) [Example I-80, 3-{8-[6-(2-Methyl-pyrrolidin-1-yl)-pyridin-2-ylamino]-imidazo[1,2-b]pyridazin-6-yl}-benzonitrile], `CCN(CC)CCOc1cccc(-c2cc(Nc3cccc(N4CCCC4C)n3)c3nccn3n2)c1` (stereo not drawn) [Example I-91, {6-[3-(2-Diethylamino-ethoxy)-phenyl]-imidazo[1,2-b]pyridazin-8-yl}-[6-(2-methyl-pyrrolidin-1-yl)-pyridin-2-yl]-amine] is 2.4-fold lower in IC50: 614 nM for the first, 261 nM for the second.

Compared with `CC1CCCN1c1cccc(Nc2cc(-c3cccc(OCCN4CCOCC4)c3)nn3ccnc23)n1` (stereo not drawn) [Example I-88, [6-(2-Methyl-pyrrolidin-1-yl)-pyridin-2-yl]-{6-[3-(2-morpholin-4-yl-ethoxy)-phenyl]-imidazo[1,2-b]pyridazin-8-yl}-amine], `CC1CCCN1c1cccc(Nc2cc(-c3ccc(OCCN4CCOCC4)cc3)nn3ccnc23)n1` (stereo not drawn) [Example I-90, [6-(2-Methyl-pyrrolidin-1-yl)-pyridin-2-yl]-{6-[4-(2-morpholin-4-yl-ethoxy)-phenyl]-imidazo[1,2-b]pyridazin-8-yl}-amine] is 3.1-fold higher in IC50: 51 nM for the first, 157 nM for the second. The first is the more potent here.
